“Also recorded” adds a separate entry of the source.
Legend:
[1] = tested on: NCI-60 human tumour cell lines; test: NCI-60 human tumour cell screen (sulforhodamine B); format: cell-based; settings: single dose 10^-5 M, 48 hours, 60 tumor cell panels incl. MDA-MB-231
Description: One concern about an agent that enhances SUMOylation is off-target effects including tumour growth. Several studies reported direct involvement of SUMO E1 in the setting of cancer. In patients with hepatocellular carcinoma, UBA2 gene expression was higher and directly correlated with lower survival rate[25]. SUMO E1 was also reported to be an important factor for myc-dependent tumour growth in mice and there is a correlation between low SUMO E1 gene expression and longer metastasis-free survival rate of patients with myc-high breast cancers. Thus, we sought to determine whether N106 would have an effect on cancer cell growth. We performed the NCI-60 human tumour cell screen used by the National Cancer Institute’s Developmental Therapeutics Program (http://dtp.cancer.gov/docs/compare/compare.html). The NCI-60 set includes leukemia, lymphomas and carcinomas of ovarian, renal, breast, prostate, colon, lung and central nervous system origin.
Supplementary Figure 12. NCI 60 cell screening. N106 submitted to the NCI 60 cell screen
has been tested initially at a single high dose of 10^-5 M in 60 different tumor cell panels. 48 hours
after compound treatment, cell density and proliferation was determined by sulforhodamine B

[2] = molecular target: T1, Recombinant human SUMO-specific E1 (Homo sapiens, UniProt Q9UBT2); test: SUMO E1 ATP hydrolysis, fluorogenic pyrophosphate assay; format: biochemical; settings: E1 0.05 μM, Ubc9 0.25 μM, SUMO-1 12.5 μM, ATP 1 mM, 30 min at 37 °C; read-out: ATP-dependent activation of SUMO E1, EC50
T1 construct: purchased R&D Systems
Protocol: Figure 3 SUMO-specific activating enzyme, E1, is a direct target of N106. Mechanism of action of N106 on individual steps in the SUMOylation cascade in vitro. (a) Inorganic pyrophosphate resulting from ATP hydrolysis in E1-catalysed SUMO-1 activation in the presence of increasing concentration of N106 compound was assessed by fluorogenic pyrophosphate assay kit. Recombinant human SUMO-specific E1 (0.05 μM), human Ubc9 (0.25 μM), human SUMO-1 (12.5 μM) and ATP (1 mM) were incubated with increasing concentration of N106 for 30 min at 37 °C and quantified using a fluorescence microplate reader. (b) The SAE2-SUMO-1 conjugation was detected followed by western blotting with anti-SAE2 antibodies. […] (e) ATP hydrolytic activity of WT and mutant SUMO E1 are determined. (f) The E1-SUMO-1 conjugation was detected followed by western blot analysis with anti-SAE2 antibody. *The SAE2-SUMO-1 conjugated bands. […]
Biochemical activity of SUMO-specific E1 enzymes was examined by ATPase assay and in-vitro gel-shifting assays. ATP hydrolysis activity of E1 enzymes was measured by using pyrophosphate assay kit (Abcam Inc.). […] The E1-thioester formation was analysed in reaction mixtures containing 0.05 μM E1, 12.5 μM SUMO-1 and 1 mM ATP with N106 or DMSO. The E1-dependent E2-SUMO-1 thioester formation was assessed using reaction containing 0.05 μM E1, 0.25 μM E2, 12.5 μM SUMO-1 and 1 mM ATP with N106 or DMSO. […]

T1 sequence (Q9UBE0 whole entry): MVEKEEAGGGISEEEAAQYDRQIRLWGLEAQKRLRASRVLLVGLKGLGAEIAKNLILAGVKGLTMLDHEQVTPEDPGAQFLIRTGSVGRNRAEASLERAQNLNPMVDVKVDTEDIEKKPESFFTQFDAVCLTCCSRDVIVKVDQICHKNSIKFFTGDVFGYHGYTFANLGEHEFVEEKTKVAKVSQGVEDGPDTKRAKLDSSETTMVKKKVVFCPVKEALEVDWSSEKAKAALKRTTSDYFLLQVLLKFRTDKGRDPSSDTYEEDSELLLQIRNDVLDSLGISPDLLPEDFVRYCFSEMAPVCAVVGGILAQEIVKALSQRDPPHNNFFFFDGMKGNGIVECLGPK
T1 sequence (Q9UBT2 whole entry): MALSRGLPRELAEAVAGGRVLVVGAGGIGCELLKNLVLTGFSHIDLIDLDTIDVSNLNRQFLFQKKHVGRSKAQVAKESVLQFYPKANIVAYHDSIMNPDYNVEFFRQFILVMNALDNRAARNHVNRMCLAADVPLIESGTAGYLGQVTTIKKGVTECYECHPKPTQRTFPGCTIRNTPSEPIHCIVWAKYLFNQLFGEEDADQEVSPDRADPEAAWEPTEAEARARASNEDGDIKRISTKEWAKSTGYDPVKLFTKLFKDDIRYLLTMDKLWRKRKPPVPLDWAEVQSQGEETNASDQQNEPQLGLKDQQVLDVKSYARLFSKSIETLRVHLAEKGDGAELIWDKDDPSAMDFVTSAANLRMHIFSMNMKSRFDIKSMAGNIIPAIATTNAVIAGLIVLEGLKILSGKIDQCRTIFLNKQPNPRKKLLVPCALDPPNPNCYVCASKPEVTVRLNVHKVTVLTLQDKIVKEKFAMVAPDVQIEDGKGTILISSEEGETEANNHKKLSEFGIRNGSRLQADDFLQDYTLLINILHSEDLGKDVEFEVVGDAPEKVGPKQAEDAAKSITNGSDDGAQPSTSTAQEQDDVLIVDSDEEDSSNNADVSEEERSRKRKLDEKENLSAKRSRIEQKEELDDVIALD

COc1ccc(-c2nnc(Nc3nc4c(OC)cccc4s3)o2)cc1 [Compound N106, N-(4-methoxybenzo[d]thiazol-2-yl)-5-(4-methoxyphenyl)-1,3,4-oxadiazol-2-amine] was tested, and the “tumour cell growth and proliferation” value [1] was “has not shown any significant oncogenic activity; also recorded: did not induce any tumour cell growth and proliferation” and the EC50 [2] was 2.45 ± 0.13 µM.
